Reference: ChEMBL document CHEMBL3639024, “Azinone-substituted azapolycycle MCH-1 antagonists, methods of making, and use thereof” (2013)

Target: Melanin-concentrating hormone receptor 1 (Homo sapiens, UniProt Q99705)
Assay: Binding Assay: Evaluation of the affinity of compounds for the human MCH-1 receptor was accomplished using 4-(3,4,5-tritritiumbenzyloxy)-1-(1-(2-(pyrrolidin-1-yl)ethyl)-1H-indazol-5-yl)pyridin-2(1H)-one and membranes prepared from stable CHO-K1 cells expressing the human MCH1 receptor obtained from Euroscreen (Batch 1138).
Assay type: cell membranes

Melanin-concentrating hormone receptor 1, sequence (Q99705 whole entry): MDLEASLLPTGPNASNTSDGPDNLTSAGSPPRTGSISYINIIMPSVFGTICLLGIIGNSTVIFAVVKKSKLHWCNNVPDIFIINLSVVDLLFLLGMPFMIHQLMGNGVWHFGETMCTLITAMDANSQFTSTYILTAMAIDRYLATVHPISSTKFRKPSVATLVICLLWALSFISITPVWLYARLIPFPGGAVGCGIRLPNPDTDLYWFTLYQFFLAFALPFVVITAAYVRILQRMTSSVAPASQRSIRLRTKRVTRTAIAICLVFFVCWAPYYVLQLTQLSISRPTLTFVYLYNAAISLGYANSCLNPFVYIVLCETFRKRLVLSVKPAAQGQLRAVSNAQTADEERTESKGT

Ki: 9.7 nM
Compound: Cn1c2c(c3ccc(-n4ccc(OCc5ccc(F)cn5)cc4=O)cc31)CN1CCCC1C2 (stereo unspecified)
